In US10479780B2, “Aminopyrazole derivatives” (Chugai Seiyaku Kabushiki Kaisha, priority 2015, dated 2019):

Experiments:
Format in all cases: biochemical
[1] = target: T1, human Lck enzyme (Homo sapiens, UniProt P06239); assay: Lck enzyme inhibitory activity (time-resolved fluorometry, biotinylated peptide phosphorylation); conditions: biotinylated peptide phosphorylation, read-out: LCK_IC50
T1 construct: purchased Carna Biosciences, Inc. 08-170
Procedure, shortened: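 Readout pairs a europium cryptate-labelled anti-phosphotyrosine antibody with XL665-streptavidin, measured by time-resolved fluorescence. IC50 derived from percent inhibition against untreated controls.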

[2] = target: T2, human Yes1 enzyme (Homo sapiens, UniProt P07947); assay: Yes1 enzyme inhibitory activity (time-resolved fluorometry, biotinylated peptide phosphorylation); conditions: biotinylated peptide phosphorylation, read-out: YES_IC50
T2 construct: made in house
T2 sequence (P07947 whole entry): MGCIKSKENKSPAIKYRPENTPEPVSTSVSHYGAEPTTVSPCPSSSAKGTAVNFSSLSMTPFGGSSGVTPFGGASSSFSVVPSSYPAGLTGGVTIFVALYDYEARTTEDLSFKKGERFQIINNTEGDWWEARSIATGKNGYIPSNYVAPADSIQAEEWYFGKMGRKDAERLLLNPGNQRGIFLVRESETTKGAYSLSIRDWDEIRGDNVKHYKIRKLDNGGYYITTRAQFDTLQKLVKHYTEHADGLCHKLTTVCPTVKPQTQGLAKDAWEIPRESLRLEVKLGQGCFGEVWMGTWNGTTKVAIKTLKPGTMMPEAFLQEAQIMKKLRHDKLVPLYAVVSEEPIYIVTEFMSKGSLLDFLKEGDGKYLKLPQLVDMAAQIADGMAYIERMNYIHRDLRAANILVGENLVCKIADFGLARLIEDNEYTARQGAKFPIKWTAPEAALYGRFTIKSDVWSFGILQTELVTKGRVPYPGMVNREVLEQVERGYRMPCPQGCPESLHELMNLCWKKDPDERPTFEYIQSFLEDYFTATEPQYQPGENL
Procedure, shortened: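 Inhibition was expressed against a compound-free control to give IC50, using TR-FRET read-out (Eu-cryptate anti-pTyr antibody, streptavidin-XL665).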

[3] = target: T3, human Src enzyme (Homo sapiens, UniProt P12931); assay: Src enzyme inhibitory activity (time-resolved fluorometry, biotinylated peptide phosphorylation); conditions: biotinylated peptide phosphorylation, read-out: SRC_IC50
T3 construct: purchased Carna Biosciences, Inc. 08-173
T3 sequence (P12931 whole entry): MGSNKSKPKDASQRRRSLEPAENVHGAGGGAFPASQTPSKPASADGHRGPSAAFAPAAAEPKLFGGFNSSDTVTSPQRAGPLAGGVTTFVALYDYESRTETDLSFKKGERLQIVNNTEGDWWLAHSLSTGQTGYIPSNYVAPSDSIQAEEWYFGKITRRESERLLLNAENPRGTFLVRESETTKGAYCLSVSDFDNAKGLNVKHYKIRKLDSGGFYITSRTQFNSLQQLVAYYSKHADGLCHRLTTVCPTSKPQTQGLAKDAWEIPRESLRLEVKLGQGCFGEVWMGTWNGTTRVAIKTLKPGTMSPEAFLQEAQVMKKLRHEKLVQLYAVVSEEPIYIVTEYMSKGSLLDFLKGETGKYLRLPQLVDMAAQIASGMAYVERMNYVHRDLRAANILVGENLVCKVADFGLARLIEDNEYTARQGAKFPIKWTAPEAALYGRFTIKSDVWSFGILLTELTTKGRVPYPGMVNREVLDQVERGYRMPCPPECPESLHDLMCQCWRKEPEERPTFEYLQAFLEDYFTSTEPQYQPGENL
Procedure, shortened: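 Compounds were tested for blocking tyrosine phosphorylation of a biotinylated peptide substrate by recombinant human Src. Phosphorylated product was quantified by time-resolved fluorometry using europium cryptate and XL665 conjugates, and IC50 was calculated against the compound-free control.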

T1 sequence (P06239 whole entry): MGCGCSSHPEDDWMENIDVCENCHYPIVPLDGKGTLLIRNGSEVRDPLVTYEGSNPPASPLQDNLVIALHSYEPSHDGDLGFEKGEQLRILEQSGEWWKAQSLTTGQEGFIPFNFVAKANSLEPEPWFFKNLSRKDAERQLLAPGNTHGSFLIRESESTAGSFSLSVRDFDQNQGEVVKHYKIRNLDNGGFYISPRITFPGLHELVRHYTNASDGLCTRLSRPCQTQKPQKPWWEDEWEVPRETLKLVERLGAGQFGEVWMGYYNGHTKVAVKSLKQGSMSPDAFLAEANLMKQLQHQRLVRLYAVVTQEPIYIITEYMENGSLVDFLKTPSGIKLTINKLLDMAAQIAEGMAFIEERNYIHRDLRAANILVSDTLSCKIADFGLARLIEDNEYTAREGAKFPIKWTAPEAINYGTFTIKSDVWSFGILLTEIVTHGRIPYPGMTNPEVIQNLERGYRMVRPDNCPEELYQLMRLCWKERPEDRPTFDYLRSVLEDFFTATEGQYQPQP

Compound | IC50 [1] | IC50 [2] | IC50 [3]
Cc1cc(Oc2cc(F)ccc2Cl)ncc1-n1ncc(C(=O)c2cc3cc(F)c(NS(C)(=O)=O)cc3[nH]2)c1N [Example 4-2-034, N-[2-[5-amino-1-[6-(2-chloro-5-fluorophenoxy)-4-methylpyridin-3-yl]pyrazole-4-carbonyl]-5-fluoro-1H-indol-6-yl]methanesulfonamide] | 44 nM | 4.6 nM | 140 nM
Cc1cc(Oc2cccc(F)c2)ncc1-n1ncc(C(=O)c2cc3cc(F)c(NS(C)(=O)=O)cc3[nH]2)c1N [Example 4-2-038, N-[2-[5-amino-1-[6-(3-fluorophenoxy)-4-methylpyridin-3-yl]pyrazole-4-carbonyl]-5-fluoro-1H-indol-6-yl]methanesulfonamide] | 40 nM | 1.9 nM | 130 nM
Cc1cc(Oc2ccc(F)cc2)ncc1-n1ncc(C(=O)c2cc3cc(F)c(NS(C)(=O)=O)cc3[nH]2)c1N [Example 4-2-039, N-[2-[5-amino-1-[6-(4-fluorophenoxy)-4-methylpyridin-3-yl]pyrazole-4-carbonyl]-5-fluoro-1H-indol-6-yl]methanesulfonamide] | 32 nM | 4.1 nM | 84 nM
Cc1cc(Oc2cccc(F)c2F)ccc1-n1ncc(C(=O)c2cc3cc(F)c(NS(=O)(=O)C4CC4)cc3[nH]2)c1N [Example 4-2-041, N-[2-[5-amino-1-[4-(2,3-difluorophenoxy)-2-methylphenyl]pyrazole-4-carbonyl]-5-fluoro-1H-indol-6-yl]cyclopropanesulfonamide] | 38 nM | 0.79 nM | 84 nM
Cc1cc(Oc2ccccc2F)cc(C)c1-n1ncc(C(=O)c2cc3cc(F)c(NS(=O)(=O)C4CC4)cc3[nH]2)c1N [Example 4-2-042, N-[2-[5-amino-1-[4-(2-fluorophenoxy)-2,6-dimethylphenyl]pyrazole-4-carbonyl]-5-fluoro-1H-indol-6-yl]cyclopropanesulfonamide] | 370 nM | 32 nM | 840 nM
Cc1cc(Oc2c(F)cccc2F)ncc1-n1ncc(C(=O)c2cc3cc(F)c(NS(=O)(=O)C4CC4)cc3[nH]2)c1N [Example 4-2-044, N-[2-[5-amino-1-[6-(2,6-difluorophenoxy)-4-methylpyridin-3-yl]pyrazole-4-carbonyl]-5-fluoro-1H-indol-6-yl]cyclopropanesulfonamide] | 32 nM | 7 nM | 160 nM
Cc1cc(Oc2cccc(F)c2F)ncc1-n1ncc(C(=O)c2cc3cc(F)c(NS(=O)(=O)C4CC4)cc3[nH]2)c1N [Example 4-2-045, N-[2-[5-amino-1-[6-(2,3-difluorophenoxy)-4-methylpyridin-3-yl]pyrazole-4-carbonyl]-5-fluoro-1H-indol-6-yl]cyclopropanesulfonamide] | 89 nM | 4.9 nM | 230 nM
Cc1cc(Oc2c(F)cccc2Cl)ncc1-n1ncc(C(=O)c2cc3cc(F)c(NS(=O)(=O)C4CC4)cc3[nH]2)c1N [Example 4-2-046, N-[2-[5-amino-1-[6-(2-chloro-6-fluorophenoxy)-4-methylpyridin-3-yl]pyrazole-4-carbonyl]-5-fluoro-1H-indol-6-yl]cyclopropanesulfonamide] | 48 nM | 12 nM | 230 nM
Cc1ccccc1Oc1cc(C)c(-n2ncc(C(=O)c3cc4cc(F)c(NS(=O)(=O)C5CC5)cc4[nH]3)c2N)cn1 [Example 4-2-047, N-[2-[5-amino-1-[4-methyl-6-(2-methylphenoxy)pyridin-3-yl]pyrazole-4-carbonyl]-5-fluoro-1H-indol-6-yl]cyclopropanesulfonamide] | 64 nM | 4.5 nM | 79 nM
Cc1cc(Oc2cccc(F)c2)ncc1-n1ncc(C(=O)c2cc3cc(F)c(NS(=O)(=O)C4CC4)cc3[nH]2)c1N [Example 4-2-048, N-[2-[5-amino-1-[6-(3-fluorophenoxy)-4-methylpyridin-3-yl]pyrazole-4-carbonyl]-5-fluoro-1H-indol-6-yl]cyclopropanesulfonamide] | 79 nM | 12 nM | 290 nM

These reach a lower IC50 [1]. Values come first.

IC50 [1] | IC50 [2] | IC50 [3] | Compound
30 nM | 1.1 nM | 78 nM | Cc1cc(Oc2cccc(Cl)c2)ncc1-n1ncc(C(=O)c2cc3cc(F)c(NS(C)(=O)=O)cc3[nH]2)c1N [Example 4-2-037, N-[2-[5-amino-1-[6-(3-chlorophenoxy)-4-methylpyridin-3-yl]pyrazole-4-carbonyl]-5-fluoro-1H-indol-6-yl]methanesulfonamide]
28 nM | 1.4 nM | 87 nM | Cc1cc(Oc2ccccc2F)ncc1-n1ncc(C(=O)c2cc3cc(F)c(NS(=O)(=O)C4CC4)cc3[nH]2)c1N [Example 4-2-043, N-[2-[5-amino-1-[6-(2-fluorophenoxy)-4-methylpyridin-3-yl]pyrazole-4-carbonyl]-5-fluoro-1H-indol-6-yl]cyclopropanesulfonamide]
27 nM | 3.5 nM | 92 nM | Cc1cc(Oc2cccc(F)c2F)ncc1-n1ncc(C(=O)c2cc3cc(F)c(NS(C)(=O)=O)cc3[nH]2)c1N [Example 4-2-032, N-[2-[5-amino-1-[6-(2,3-difluorophenoxy)-4-methylpyridin-3-yl]pyrazole-4-carbonyl]-5-fluoro-1H-indol-6-yl]methanesulfonamide]
26 nM | 1.7 nM | 110 nM | Cc1cc(Oc2cc(F)ccc2F)ncc1-n1ncc(C(=O)c2cc3cc(F)c(NS(C)(=O)=O)cc3[nH]2)c1N [Example 4-2-030, N-[2-[5-amino-1-[6-(2,5-difluorophenoxy)-4-methylpyridin-3-yl]pyrazole-4-carbonyl]-5-fluoro-1H-indol-6-yl]methanesulfonamide]
24 nM | 2.2 nM | 42 nM | Cc1cc(Oc2ccccc2F)ccc1-n1ncc(C(=O)c2cc3cc(F)c(NS(=O)(=O)C4CC4)cc3[nH]2)c1N [Example 4-2-040, N-[2-[5-amino-1-[4-(2-fluorophenoxy)-2-methylphenyl]pyrazole-4-carbonyl]-5-fluoro-1H-indol-6-yl]cyclopropanesulfonamide]
21 nM | 1.5 nM | 60 nM | Cc1ccccc1Oc1cc(C)c(-n2ncc(C(=O)c3cc4cc(F)c(NS(C)(=O)=O)cc4[nH]3)c2N)cn1 [Example 4-2-036, N-[2-[5-amino-1-[4-methyl-6-(2-methylphenoxy)pyridin-3-yl]pyrazole-4-carbonyl]-5-fluoro-1H-indol-6-yl]methanesulfonamide]
19 nM | 0.91 nM | 49 nM | Cc1cc(Oc2ccccc2Cl)ncc1-n1ncc(C(=O)c2cc3cc(F)c(NS(C)(=O)=O)cc3[nH]2)c1N [Example 4-2-033, N-[2-[5-amino-1-[6-(2-chlorophenoxy)-4-methylpyridin-3-yl]pyrazole-4-carbonyl]-5-fluoro-1H-indol-6-yl]methanesulfonamide]
6.7 nM | 1.3 nM | 59 nM | Cc1cc(Oc2c(F)cccc2Cl)ncc1-n1ncc(C(=O)c2cc3cc(F)c(NS(C)(=O)=O)cc3[nH]2)c1N [Example 4-2-035, N-[2-[5-amino-1-[6-(2-chloro-6-fluorophenoxy)-4-methylpyridin-3-yl]pyrazole-4-carbonyl]-5-fluoro-1H-indol-6-yl]methanesulfonamide]
5.1 nM | 0.34 nM | 19 nM | Cc1cc2cc(C(=O)c3cnn(-c4ccc(Oc5ccccc5F)cc4C)c3N)[nH]c2cc1NS(C)(=O)=O [Example 4-2-053, N-[2-[5-amino-1-[4-(2-fluorophenoxy)-2-methylphenyl]pyrazole-4-carbonyl]-5-methyl-1H-indol-6-yl]methanesulfonamide]
4.3 nM | 0.69 nM | 37 nM | Cc1cc(Oc2c(F)cccc2F)ncc1-n1ncc(C(=O)c2cc3cc(F)c(NS(C)(=O)=O)cc3[nH]2)c1N [Example 4-2-031, N-[2-[5-amino-1-[6-(2,6-difluorophenoxy)-4-methylpyridin-3-yl]pyrazole-4-carbonyl]-5-fluoro-1H-indol-6-yl]methanesulfonamide]
1.7 nM | 0.29 nM | 1.9 nM | Cc1cc2[nH]c(C(=O)c3cnn(-c4ccc(Oc5ccccc5F)cc4C)c3N)cc2cc1NS(C)(=O)=O [Example 4-2-049, N-[2-[5-amino-1-[4-(2-fluorophenoxy)-2-methylphenyl]pyrazole-4-carbonyl]-6-methyl-1H-indol-5-yl]methanesulfonamide]
1.7 nM | 0.2 nM | 7 nM | Cc1cc2[nH]c(C(=O)c3cnn(-c4ccc(Oc5cccc(F)c5F)cc4C)c3N)cc2cc1NS(C)(=O)=O [Example 4-2-050, N-[2-[5-amino-1-[4-(2,3-difluorophenoxy)-2-methylphenyl]pyrazole-4-carbonyl]-6-methyl-1H-indol-5-yl]methanesulfonamide]
1.2 nM | 0.59 nM | 3.8 nM | Cc1cc2[nH]c(C(=O)c3cnn(-c4c(C)cc(Oc5ccccc5F)cc4F)c3N)cc2cc1NS(C)(=O)=O [Example 4-2-051, N-[2-[5-amino-1-[2-fluoro-4-(2-fluorophenoxy)-6-methylphenyl]pyrazole-4-carbonyl]-6-methyl-1H-indol-5-yl]methanesulfonamide]
0.97 nM | 0.44 nM | 5.2 nM | Cc1cc2[nH]c(C(=O)c3cnn(-c4cnc(Oc5ccccc5F)cc4C)c3N)cc2cc1NS(C)(=O)=O [Example 4-2-052, N-[2-[5-amino-1-[6-(2-fluorophenoxy)-4-methylpyridin-3-yl]pyrazole-4-carbonyl]-6-methyl-1H-indol-5-yl]methanesulfonamide]
